Values quoted from earlier work, collected in US20230172943A1 (Mylan Specialty L.P., priority 2020, published 2023).

Conditions: orally delivered, humans

Tmax (time to reach maximum concentration): 4 to 6 h
time to reach the therapeutic concentration that enables the onset of action: 2 to 3 h
Structure (SMILES): Cc1cnc(NC(=O)C2=C(O)c3ccccc3S(=O)(=O)N2C)s1 [meloxicam, 4-hydroxy-2-methyl-N-(5-methyl-2-thiazolyl)-2H-1,2-benzothiazine-3-carboxamide-1,1-dioxide]
